# Reference: patent publication US20260242829A1, “Use of Inhibitors to Increase Efficiency of CRISPR/Cas Insertions” (ASTRAZENECA AB, priority 2023, published 2026)
# Tested on: HEK293T cells
# Experiment: Effect of MMEJ and NHEJ inhibitors on CRISPR-Cas-induced double-strand break repair pathways and editing efficiency (amplicon sequencing, RIMA2)
# Type: cell-based
# Conditions: AZD7648 (1 µM) alone and in combination with Compound 1 at indicated concentrations, CRISPR/Cas9-mediated gene targeting, FIG. 4
# Description: The effect of inhibitors of the MMEJ and NHEJ pathways on CRISPR-Cas-induced DNA double stranded break repair pathways was examined using the process shown schematically in FIG. 2A. Briefly, HEK293T cells were seeded into a 96-well plate 20 hours before transfection with plasmids encoding SpCas9 and a guide RNA (sgRNA) targeting CD34 in the presence and absence of single-stranded oligonucleotide donor (ssDNA). Two hours prior to transfection, the cells were submitted to inhibitor treatments, including the following conditions: a) 1 μM DNAPK inhibitor AZD7648 b) 1 μM DNAPK inhibitor AZD7648 in combination with compound 1, which was titrated in a 1:2 dilution series, ranging between 10 μM and 0.01 μM and corresponding DMSO control. Seventy hours post-transfection, cell confluence and eGFP-based transfection efficiencies were determined with the Incucyte SX5. Genomic DNA was extracted and editing outcome was analysed through deep-targeted amplicon sequencing and RIMA2 analysis (FIG. 2A) to determine knock-in frequencies as well as mutagenic DNA repair events, such as NHEJ and MMEJ outcomes (FIG. 2B).
row,Compound,DNA double strand break repair pathway used after CRISPR/Cas gene targeting
1,Cc1cc2ncnn2cc1Nc1ncc2c(n1)n(C1CCOCC1)c(=O)n2C [AZD7648],"results in DNA double strand break repair by the more precise HDR pathway, and minimizes the contribution from the more error-prone MMEJ and NHEJ pathways"
2,"CN1CCN(CCOc2ccc(-c3nc4c(OC5(C)CC5)ncnc4n3Cc3ccccc3)c(Cl)c2)CC1 [Compound 1, 9-Benzyl-8-(2-chloro-4-(2-(4-methylpiperazin-1-yl)ethoxy)phenyl)-6-(1-methylcyclopropoxy)-9H-purine]","results in DNA double strand break repair by the more precise HDR pathway, and minimizes the contribution from the more error-prone MMEJ and NHEJ pathways"
